Results reported in ChEMBL document CHEMBL2406941, “Discovery of 'molecular switches' within a GIRK activator scaffold that afford selective GIRK inhibitors” (Bioorg Med Chem Lett, 2013).
Activity calls are given as the source filed them. The calls are words filed in the database; no cut-off is given here.

What was measured:
Kir3.1/Kir3.2 [1] = target: T1, Kir3.1/Kir3.2 (Homo sapiens, UniProt P48051+P48549); experiment: Activation of GIRK1/2 (unknown origin); assay type: protein-complex assay
T1 sequence (P48549 whole entry): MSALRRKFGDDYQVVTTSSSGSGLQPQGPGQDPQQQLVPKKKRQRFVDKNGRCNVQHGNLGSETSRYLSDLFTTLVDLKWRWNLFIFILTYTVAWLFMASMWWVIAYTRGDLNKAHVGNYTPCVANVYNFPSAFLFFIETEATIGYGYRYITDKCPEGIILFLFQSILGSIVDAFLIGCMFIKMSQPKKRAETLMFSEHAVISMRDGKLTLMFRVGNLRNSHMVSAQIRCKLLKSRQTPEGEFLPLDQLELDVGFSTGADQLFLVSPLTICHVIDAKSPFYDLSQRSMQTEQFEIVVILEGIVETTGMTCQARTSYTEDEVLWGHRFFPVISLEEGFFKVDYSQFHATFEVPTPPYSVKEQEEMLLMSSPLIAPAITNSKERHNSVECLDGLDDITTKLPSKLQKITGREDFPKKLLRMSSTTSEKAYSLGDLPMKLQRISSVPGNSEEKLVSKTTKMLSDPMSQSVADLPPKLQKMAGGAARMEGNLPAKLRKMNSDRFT
T1 sequence (P48051 whole entry): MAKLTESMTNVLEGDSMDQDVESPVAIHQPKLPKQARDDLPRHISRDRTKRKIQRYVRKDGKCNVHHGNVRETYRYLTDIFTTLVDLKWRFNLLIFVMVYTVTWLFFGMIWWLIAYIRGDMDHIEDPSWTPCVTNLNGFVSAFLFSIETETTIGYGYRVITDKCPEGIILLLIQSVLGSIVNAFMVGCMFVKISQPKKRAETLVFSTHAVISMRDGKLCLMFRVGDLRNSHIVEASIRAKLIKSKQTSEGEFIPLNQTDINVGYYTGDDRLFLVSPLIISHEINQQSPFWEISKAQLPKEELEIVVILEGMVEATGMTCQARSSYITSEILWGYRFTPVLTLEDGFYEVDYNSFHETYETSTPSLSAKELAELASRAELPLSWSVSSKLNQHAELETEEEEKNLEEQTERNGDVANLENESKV

[2] = target: T2, Kir3.1/Kir3.4 (Homo sapiens) (UniProt P48549+P48544); experiment: Activation of GIRK1/4 (unknown origin) relative to ML297; assay type: protein-complex assay
[3] = target: T3, Kir3.1/Kir3.2 (Homo sapiens) (UniProt P48549+P48051); experiment: Activation of GIRK1/2 (unknown origin) relative to ML297; assay type: protein-complex assay
Kir3.1/Kir3.4 [4] = target: T4, Kir3.1/Kir3.4 (Homo sapiens, UniProt P48544+P48549); experiment: Activation of GIRK1/4 (unknown origin); assay type: protein-complex assay
T4 sequence (P48549 whole entry): T1 sequence (P48549 whole entry)
T4 sequence (P48544 whole entry): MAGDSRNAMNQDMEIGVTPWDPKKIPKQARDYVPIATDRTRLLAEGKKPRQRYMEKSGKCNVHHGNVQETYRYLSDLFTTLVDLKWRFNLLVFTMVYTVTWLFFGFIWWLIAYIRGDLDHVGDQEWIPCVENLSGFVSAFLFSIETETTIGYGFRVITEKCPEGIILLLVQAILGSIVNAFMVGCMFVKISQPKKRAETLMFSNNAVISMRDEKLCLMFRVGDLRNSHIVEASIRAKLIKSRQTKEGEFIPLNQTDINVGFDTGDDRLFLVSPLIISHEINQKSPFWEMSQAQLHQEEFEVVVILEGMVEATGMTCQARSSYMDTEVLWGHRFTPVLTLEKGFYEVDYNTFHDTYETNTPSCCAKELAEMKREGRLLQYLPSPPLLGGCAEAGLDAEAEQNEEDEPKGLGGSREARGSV

[5] = target: T2, Kir3.1/Kir3.4 (Homo sapiens); experiment: Inhibition of GIRK1/4 (unknown origin) relative to SCH3320; assay type: protein-complex assay; parameters: concentration or dose not given beside the values; conditions: concentration not given here
Kir3.1/Kir3.4 [6] = target: T4, Kir3.1/Kir3.4; experiment: Inhibition of GIRK1/4 (unknown origin); assay type: protein-complex assay
[7] = target: T3, Kir3.1/Kir3.2 (Homo sapiens); experiment: Inhibition of GIRK1/2 (unknown origin) relative to SCH3320; assay type: protein-complex assay; parameters: concentration or dose not given beside the values; conditions: concentration not given here
Kir3.1/Kir3.2 [8] = target: T1, Kir3.1/Kir3.2; experiment: Inhibition of GIRK1/2 (unknown origin); assay type: protein-complex assay
[9] = target: T5, G protein-activated inward rectifier potassium channel 2 (Homo sapiens) (UniProt P48051); experiment: Activation of GIRK2 (unknown origin)
T5 sequence (whole entry): T1 sequence (P48051 whole entry)

[10] = target: Kir3.2/Kir3.3 (Homo sapiens) (UniProt P48051+Q92806); experiment: Activation of GIRK2/3 (unknown origin); assay type: protein-complex assay
[11] = target: T2, Kir3.1/Kir3.4 (Homo sapiens); experiment: Activation of GIRK1/4 (unknown origin) relative to control; assay type: protein-complex assay
[12] = target: T3, Kir3.1/Kir3.2 (Homo sapiens); experiment: Activation of GIRK1/2 (unknown origin) by thallium flux assay relative to control; assay type: protein-complex assay
Kir3.1/Kir3.2 [13] = target: T1, Kir3.1/Kir3.2; experiment: Activation of GIRK1/2 (unknown origin) by thallium flux assay; assay type: protein-complex assay
[14] = Inhibition of GIRK (unknown origin); parameters: species or system Homo sapiens

Structure (SMILES) | EC50 (Kir3.1/Kir3.2 [1]) [nM] | Efficacy [3] [%] | EC50 (Kir3.1/Kir3.4 [4]) [nM] | inhibition [5] [%] | IC50 (Kir3.1/Kir3.4 [6]) [nM] | inhibition [7] [%] | IC50 (Kir3.1/Kir3.2 [8]) [nM] | Activity [10] | further results
O=C(Nc1cccc(Br)c1)Nc1cc(C2CC2)nn1Cc1ccccc1 | 380 | 44 | 790 | – | – | – | – | – | Efficacy [2]: 65%
O=C(Nc1cccc(Cl)c1)Nc1cc(CC2CC2)nn1-c1ccccc1 | – | – | – | 72 | 340 | 76 | 630 | – | –
CC(C)c1cc(NC(=O)Nc2cccc(C(F)(F)F)c2)n(-c2ccccc2)n1 | – | – | – | 100 | 1300 | 62 | 2100 | – | –
O=C(Nc1cccc(C(F)(F)F)c1)Nc1cc(C2CC2)nn1Cc1ccccc1 | 340 | 35 | 650 | – | – | – | – | – | Efficacy [2]: 39%
O=C(Nc1ccc(F)c(F)c1)Nc1cc(C(F)(F)F)nn1-c1ccccc1 | – | – | – | – | – | – | – | inactive | Activity [9]: inactive
Cc1cc(NC(=O)Nc2ccc(F)c(F)c2)n(-c2ccc(F)cc2)n1 | 190 | 78 | 540 | – | – | – | – | inactive | Activity [9]: inactive; Efficacy [2]: 57%
CC(C)c1cc(NC(=O)Nc2ccc(F)c(F)c2)n(-c2ccccc2)n1 | – | – | – | 150 | 1400 | 136 | 2000 | inactive | Activity [9]: inactive
O=C(Nc1cccc(C(F)(F)F)c1)Nc1cc(CC2CC2)nn1-c1ccccc1 | – | – | – | 45 | 250 | 88 | 540 | – | –
Cc1ccc(NC(=O)Nc2cc(C3CC3)nn2Cc2ccccc2)cc1 | 570 | 35 | 920 | – | – | – | – | – | Efficacy [2]: 46%
Cc1cccc(NC(=O)Nc2cc(CC3CC3)nn2-c2ccccc2)c1 | – | – | – | 47 | 250 | 83 | 520 | – | –
CC(C)c1cc(NC(=O)Nc2cccc(F)c2)n(-c2ccccc2)n1 | – | – | – | 70 | 780 | 77 | 2100 | – | –
O=C(Nc1ccc(F)c(F)c1)Nc1cc(-c2ccccc2)nn1-c1ccccc1 | > 30000 | – | – | – | – | – | – | inactive | Activity [9]: inactive
Cc1cc(NC(=O)Nc2ccc(F)c(F)c2)n(Cc2ccccc2)n1 | 70 | 87 | 110 | – | – | – | – | inactive | Activity [9]: inactive; Efficacy [2]: 99%
CC(C)c1cc(NC(=O)Nc2cccc(C(F)(F)F)c2)n(Cc2ccccc2)n1 | 1700 | 38 | 3500 | – | – | – | – | – | Efficacy [2]: 10%
O=C(Nc1cccc(F)c1)Nc1cc(CC2CC2)nn1-c1ccccc1 | – | – | – | 72 | 180 | 75 | 450 | – | –
Cc1cc(NC(=O)Nc2ccc(F)c(F)c2)n(-c2ccccc2)n1 | – | – | 1800 | – | – | – | – | inactive | Efficacy [11]: 93%; Efficacy [12]: 194%; EC50 (Kir3.1/Kir3.2 [13]): 160 nM
CN1CCc2cc(Cl)c(O)cc2[C@@H](c2ccccc2)C1 [SCH-23390] | – | – | – | – | – | – | – | – | IC50 [14]: 4000 nM
Cc1cc(NC(=O)Nc2ccc(F)c(F)c2)n(-c2ccncc2)n1 | > 10000 | 88 | > 30000 | – | – | – | – | inactive | Activity [9]: inactive
O=C(Nc1ccc(F)cc1)Nc1cc(CC2CC2)nn1-c1ccccc1 | – | – | – | 54 | 270 | 80 | 640 | – | –
Cc1ccc(NC(=O)Nc2cc(C(C)C)nn2-c2ccccc2)cc1 | – | – | – | 62 | 1800 | 100 | 3900 | – | –
CC(C)c1cc(NC(=O)Nc2cccc(Cl)c2)n(Cc2ccccc2)n1 | 470 | 35 | 1700 | – | – | – | – | – | Efficacy [2]: 23%
O=C(Nc1ccc(F)cc1)Nc1cc(C2CC2)nn1Cc1ccccc1 | 350 | 57 | 570 | – | – | – | – | – | Efficacy [2]: 90%
Cc1cc(NC(=O)Nc2ccc(F)c(F)c2)n(-c2ccccn2)n1 | > 10000 | 78 | > 30000 | – | – | – | – | inactive | Activity [9]: inactive
O=C(Nc1cccc(F)c1)Nc1cc(C2CC2)nn1Cc1ccccc1 | 530 | 46 | 780 | – | – | – | – | – | Efficacy [2]: 85%
Cc1cc(NC(=O)Nc2ccccc2)n(-c2ccccc2)n1 | – | – | 690 | – | – | – | – | inactive | Efficacy [11]: 93%; Efficacy [12]: 97%; EC50 (Kir3.1/Kir3.2 [13]): 1400 nM
Cc1cc(NC(=O)Nc2ccc(F)c(F)c2)n(CC(F)(F)F)n1 | 460 | 96 | 1300 | – | – | – | – | inactive | Activity [9]: inactive; Efficacy [2]: 103%
Cc1cccc(NC(=O)Nc2cc(C(C)C)nn2-c2ccccc2)c1 | – | – | – | 67 | 850 | 93 | 2600 | – | –

Continued, in another order:

EC50 (Kir3.1/Kir3.2 [1]) [nM] | Efficacy [3] [%] | EC50 (Kir3.1/Kir3.4 [4]) [nM] | inhibition [5] [%] | IC50 (Kir3.1/Kir3.4 [6]) [nM] | inhibition [7] [%] | IC50 (Kir3.1/Kir3.2 [8]) [nM] | Activity [10] | Structure (SMILES) | further results
– | – | – | – | > 30000 | 80 | 850 | – | Cc1cccc(NC(=O)Nc2cc(C3CC3)nn2-c2ccccc2)c1 | –
410 | 32 | – | – | – | – | – | inactive | O=C(Nc1ccc(F)c(F)c1)Nc1cc(C2CC2)nn1-c1ccccc1 | Activity [9]: inactive
210 | 47 | 320 | – | – | – | – | – | O=C(Nc1ccc(F)c(Cl)c1)Nc1cc(C2CC2)nn1Cc1ccccc1 | Efficacy [2]: 83%
– | – | – | 89 | 480 | 64 | 1400 | – | O=C(Nc1cccc(Cl)c1)Nc1cc(C2CCC2)nn1-c1ccccc1 | –
– | – | – | – | > 30000 | 86 | 950 | – | CSc1cccc(NC(=O)Nc2cc(C3CC3)nn2-c2ccccc2)c1 | –
– | – | – | 69 | 720 | 51 | 1900 | – | O=C(Nc1cccc(Br)c1)Nc1cc(C2CCC2)nn1-c1ccccc1 | –
– | – | – | 67 | 560 | 95 | 650 | inactive | O=C(Nc1ccc(F)c(F)c1)Nc1cc(CC2CC2)nn1-c1ccccc1 | Activity [9]: inactive
– | – | – | 70 | 310 | 87 | 810 | – | O=C(Nc1ccc(F)c(Cl)c1)Nc1cc(CC2CC2)nn1-c1ccccc1 | –
– | – | – | 84 | 690 | 65 | 1300 | – | O=C(Nc1cccc(C(F)(F)F)c1)Nc1cc(C2CCC2)nn1-c1ccccc1 | –
– | – | – | 69 | 610 | 70 | 1900 | – | O=C(Nc1ccc(F)c(Cl)c1)Nc1cc(C2CCC2)nn1-c1ccccc1 | –
– | – | – | – | – | – | – | inactive | O=C(Nc1ccc(F)c(F)c1)Nc1cc(C2CCC2)nn1-c1ccccc1 | Activity [9]: inactive
– | – | – | 88 | 4100 | 85 | 5100 | inactive | O=C(Nc1ccc(F)c(F)c1)Nc1cc(C2CCCC2)nn1-c1ccccc1 | Activity [9]: inactive
1400 | 37 | 720 | – | – | – | – | – | O=C(Nc1cccc(Cl)c1)Nc1cc(C2CC2)nn1-c1ccccc1 | Efficacy [2]: 39%
– | – | – | – | > 30000 | 60 | 1200 | – | O=C(Nc1cccc(F)c1)Nc1cc(C2CC2)nn1-c1ccccc1 | –
